{
  "source": "patent US9211341B2",
  "about": "“Method of manufacturing a pharmaceutical composition having chelating type complex micelles” (Original BioMedicals Co., Ltd, priority 2011, dated 2015)",
  "origin": "cited, not measured here",
  "data": [
    {"smiles": "NCCCNCCSP(=O)(O)O", "note": "[amifostine]", "values": [
      {"measurement": "blood half-life (βt1/2)", "setting": "after injection", "result": 8.8, "unit": "min"},
      {"measurement": "time at which the cytoprotective effect appears", "setting": "after injection", "result": "5 to 10", "unit": "min"},
      {"measurement": "time to reach steady state after distribution to tissues and dephosphorylation", "setting": "after injection", "result": "about 10 minutes"},
      {"measurement": "concentration in normal cells (kidney, lung, liver, skin, bone marrow, intestine, spleen) relative to cancer cells", "setting": "following injection", "result": 10, "unit": "times"},
      {"measurement": "plasma clearance, fraction cleared", "setting": "within 6 minutes", "result": "approximately 90%"}
    ]}
  ]
}
